Measurements as given in PMC6403271, “Characterization, mechanism of action and optimization of activity of a novel peptide-peptoid hybrid against bacterial pathogens involved in canine skin infections” (Scientific Reports, 2019).
Square brackets hold non-standard residues; d marks the D form. Ends that are not written are not given here. Peptide text beside a SMILES is read from it. d1Nal = N[C@H](Cc1cccc2ccccc12)C(=O)O

What was measured:
[1] = tested on: MRSP E104; experiment: High-throughput growth curves (BioScreen); assay type: cell-based, Staphylococcus pseudintermedius; details: growth curve analysis
Experimental: The effects of B1 on the growth of a reference MRSP strain (ST71, E104) were evaluated using BioScreen (Oy Growth Curves Ab LTd, Finland). A well characterized antimicrobial peptide, Nisin, was used as a positive control. […] The OD600 of each micro-culture was measured and recorded every 15 min after a 5 second pause of shaking in automatic mode. The recorded ODs were plotted against time to prepare the growth curves. The assay was performed with technical and biological replicates, and one representative result was presented.

[2] = tested on: membrane potential of MRSP E104; experiment: DiSC3(5) fluorescence-based membrane potential study; assay type: cell-based, Staphylococcus pseudintermedius; details: MRSP E104, nisin treatment
Experimental: Freshly sub-cultured E104 cells were labelled with 1 µM 3,3-Dipropylthiadicarbocyanine iodide [DiSC3(5)] (Sigma) in MHB II. The fluorescence spectra of labelled cells were plotted in the LS50B luminescence spectrometer (PerkinElmer) at excitation/emission wavelengths 546 nm/573 nm using time drive application of FLWINLAB software. After reading an initial stable emission spectra of DiSC3(5), labelled cells were treated with B1 or nisin or protonophore CCCP at 1, 1.5 and 1.25 µg/ml, respectively and the change of fluorescence over time was recorded. The increment of DiSC3(5) fluorescence upon addition of antimicrobials or CCCP (FUafter-treatment – FUbefore-treatment) was plotted. This experiment was performed twice and each time with two technical replicates.

[3] = tested on: cell wall synthesis in MRSP E104; experiment: Macromolecule biosynthesis rate, cell wall (3H-glucosamine); assay type: cell-based, Staphylococcus pseudintermedius; details: MRSP E104, 1.25 µg/ml, 20 min
Experimental: (§1) Macromolecule biosynthesis rate was measured in MRSP E104 following a protocol adapted from Ling et al.[65]. Briefly, E104 overnight culture was sub-cultured 1:100 in MHB II and grown up to OD 0.2 at 600 nm. Cells were pelleted down by centrifugation and resuspended in fresh medium followed by incubation for 20 min with B1 or nisin at 1.5 µg/ml and 1.25 µg/ml, respectively, and radiolabeled precursor: (50µCi) 3H-Thymidine (PerkinElmer) and (5µCi) 3H-glucosamine hydrochloride per ml for DNA and cell wall, respectively. A positive control without antimicrobial was maintained. After incubation, samples were precipitated with equal volume of cold 30% TCA (Sigma) on ice. Precipitates were filtered on a membrane filter and subsequently subjected to two washes of cold 15% TCA and two washes of cold water using vacuum manifold. Subsequently, filters were air dried overnight and then transferred to 10 ml scintillation vials. Finally, scintillation fluid (3 ml) was added to each vial and ^3H count was taken in Beckman Coulter LS6500 liquid scintillation counter for one minute. The radioactive counts of the control samples were considered to have 100% precursor incorporation and macromolecule synthesis. The percentage rates of the antimicrobial-exposed samples were calculated accordingly. Each experiment was performed with replicates and the average rates of incorporation were plotted.

[4] = tested on: DNA synthesis in MRSP E104; experiment: Macromolecule biosynthesis rate, DNA (3H-Thymidine); assay type: cell-based, Staphylococcus pseudintermedius; details: MRSP E104, 1.25 µg/ml, 20 min
Experimental: as §1

[5] = tested on: P. aeruginosa (26314); assay type: cell-based, Pseudomonas aeruginosa; details: 26314, 18 h
Experimental: Activity of B1 was tested on […]. aeruginosa isolates and […]. pseudintermedius isolates (including 7 MRSP) that had been isolated in the diagnostic laboratory Sund Vet Diagnostik (University of Copenhagen) from various infections in dogs between 2009 and 2011. Representative […], and P. aeruginosa (26314) were used for testing the first set of B1 analogues. For antibacterial spectrum the following strains were used: Corynebacterium auriscanis, 31551, (54 C6, dog, ear, 2013); Enterococcus faecalis, 27404, (17 C7, dog, wound, 2011); Enterococcus faecium, 30951, (24 C1, dog, ear, 2013); Streptococcus canis, 26740-1, (14 H1, dog, ear, 2010); Staphylococcus aureus, 27266, (16 G9, dog, skin, 2010); Staphylococcus aureus, 27266, (16 G9, dog, skin, 2010); Staphylococcus pseudintermedius 22963, (3 B9, dog, 2007). Acinetobacter baumannii, 27065, (16 D1, dog, wound, 2010); E. coli, 30235, 23 A6, dog, wound, 2012; Klebsiella pneumoniae, 26233, (11 H5, dog, wound, 2010); Pasteurella canis, 31096, (24 C8, dog, skin, 2013); Proteus mirabilis, 25178, (9 A4, dog, ear, 2009); Pseudomonas aeruginosa 26314, 12 C5, dog, urine, 2010). MIC determination was performed by broth microdilution according to the Clinical and Laboratory Standard Institute (CLSI, […]-A3, 2008)[62]. In brief, each bacterial strain was diluted to concentration of 5 × 10^5 CFU/mL in Mueller Hinton broth II (MHB II) media (Oxoid) and added to a two-fold serial dilution of peptides and peptide-peptoid hybrids concentrations ranging from 1 to 64 μg/ml in 96-well plates (Nunc Internationals, Rochester, NY). The MICs were determined as a lowest concentration showing no visible growth after incubation for 18 hours at 37 °C. Experiments were performed in triplicates on two different days.

[6] = assay type: cell-based, human; details: human
Experimental: (§2) Briefly, two-fold serial dilutions (2.35 to 150 μM) of compounds in phosphate buffer saline (PBS) were mixed with equal volume of 0.5% v/v suspension of fresh human red blood cells (RBC) in the same buffer. After 1 h incubation at 37 °C, plates were centrifuged and aliquots of the supernatants were transferred to clear 96-well plates. Absorbance at 414 nm was measured and normalized using a negative (PBS, 0%) and a positive (melittin, 100%) control. The EC10 and EC50 are concentrations at which 10% and 50% of RBC were lysed, respectively, as interpolated graphically by the y-axis intersection of the plotted data.

[7] = tested on: human red blood cells; assay type: cell-based
Experimental: as §2

[8] = tested on: MRSP C22963; assay type: cell-based, Staphylococcus pseudintermedius; details: 18 h
Experimental: (§3) Activity of B1 was tested on 50P. aeruginosa isolates and 57S. pseudintermedius isolates (including 7 MRSP) that had been isolated in the diagnostic laboratory Sund Vet Diagnostik (University of Copenhagen) from various infections in dogs between 2009 and 2011. Representative MRSP (C22963), MSSA, and P. aeruginosa (26314) were used for testing the first set of B1 analogues.
(§4) MIC determination was performed by broth microdilution according to the Clinical and Laboratory Standard Institute (CLSI, M31-A3, 2008)[62]. In brief, each bacterial strain was diluted to concentration of 5 × 10^5 CFU/mL in Mueller Hinton broth II (MHB II) media (Oxoid) and added to a two-fold serial dilution of peptides and peptide-peptoid hybrids concentrations ranging from 1 to 64 µg/ml in 96-well plates (Nunc Internationals, Rochester, NY). The MICs were determined as a lowest concentration showing no visible growth after incubation for 18 hours at 37 °C. Experiments were performed in triplicates on two different days.

[9] = tested on: MSSA (ATCC 29213); assay type: cell-based, Staphylococcus aureus; details: ATCC 29213, 18 h
Experimental: as §3, §4

| Molecule | MIC concentration (cell lysis) MRSP E104 [1] [µg/mL] | membrane potential, DiSC3(5) fluorescence emission [2] | inhibition of cell wall synthesis [3] [%] | inhibition of DNA synthesis [4] [%] | Minimum Inhibitory Concentration P. aeruginosa (26314) [5] [µg/mL] | hemolysis at 1 h, 150 µM [6] [%] | Haemolysis EC10 [7] [µM] | EC50 ([7]; red cells of human, 1 h) [µM] | Minimum Inhibitory Concentration MRSP C22963 [8] [µg/mL] | Minimum Inhibitory Concentration MSSA (ATCC 29213) [9] [µg/mL] |
| --- | --- | --- | --- | --- | --- | --- | --- | --- | --- | --- |
| nisin (ITSISLCTPGCKTGALMGCNMKTATCHCSIHVSK; not fully specified (some residues, bridges); cysteine pairing not given here; also: lantibiotic nisin-A (post-translational modifications not given here); UniProt P13068 24-57, looked up) [well-characterized antimicrobial peptide used as control, reference compound] | 5 | no fluorescence increment | 60 | 50 |  |  |  |  |  |  |
| CC(C)C[C@@H](NC(=O)[C@H](CCCCN)NC(=O)[C@H](CCCCN)NC(=O)[C@@H](N)CCCCN)C(=O)N[C@H](Cc1cccc2ccccc12)C(=O)N[C@H](Cc1ccccc1)C(=O)N[C@H](Cc1cccc2ccccc12)C(N)=O [Compound 15, Lys-Lys-Lys-leu-(1-Nal)ala-phe-(1-Nal)ala] (H-KKK[dL][d1Nal][dF][d1Nal]-NH2; N-terminus assumed) |  |  |  |  | 8 | 88 | 8 | 40 | 2 | 8 |
